Results taken from patent US10328163B2, “Compounds binding to neuropathological aggregates” (Technische Universität München, priority 2014, dated 2019).
“Also recorded” adds a separate entry of the source. Like-named read-outs stand apart in the source and are kept apart here. Blank lines part the entries; values can stand above or below the molecule they belong to.

Key:
[1] = test system: Aβ1-40, Aβ1-42, τ, α-Syn aggregates; experiment: In vitro selectivity / binding profile across aggregates (potential use: targeting of); settings: for Potential Use: Targeting of (in vitro selectivity): Table 2
Protocol: (§1) Saturation and competition binding assays of compounds in this invention towards synthetic amyloid peptides, human tau-441 recombinant and human α-synuclein recombinant aggregate (fibrils) were performed similar to previously reported assays (Manook et al. 2012 and Yousefi et al. 2011) and adapted to the change of peptides and label. Aggregates sample was deployed on 96-well cell culture plates (Greiner Bio-One, Germany) to a final reaction volume of […] per well using 8-channel electronic pipettes (Mettler Toledo, Germany) giving 12-24 octuples of data points per sample. Bound and free fractions were separated by vacuum filtration through polyethyleneimine-pretreated GF/B glass filtermats using a semi-automated Harvester 96 Mach II M (Tomtec, USA). Filters were cut and retained radioactivity determined using an automatic NaI(TI) well-type γ-detector (Wallac 1480-011 Automatic Gamma Counter, PerkinElmer, USA). Data were processed and analyzed using GraphPad Prism 6.0 (GraphPad Software, USA).

[2] = molecular target: human α-synuclein recombinant aggregate (fibrils) (Homo sapiens, UniProt P37840); experiment: Saturation and competition binding assay on α-synuclein aggregates (fibrils); settings: read-out: Affinity Ki, α-syn
Protocol: as §1

Aβ1-40 = Aβ1-40 (Homo sapiens, UniProt P05067); experiment: Competition binding assay vs [^3H]PiB on synthetic amyloid peptide aggregates (Aβ1-40); settings: for inhibition at 0.1 µM: 100 nM; for Ki: read-out: Affinity Ki, Aβ1-40
Aβ1-40, sequence (P05067 672-711): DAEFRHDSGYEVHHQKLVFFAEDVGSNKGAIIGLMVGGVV
Protocol: as §1

Aβ1-42 = Aβ1-42 (Homo sapiens, UniProt P05067); experiment: Competition binding assay vs [^3H]PiB on synthetic amyloid peptide aggregates (Aβ1-42); settings: for inhibition at 0.1 µM: 100 nM; for Ki: read-out: Affinity Ki, Aβ1-42
Aβ1-42, sequence (P05067 672-713): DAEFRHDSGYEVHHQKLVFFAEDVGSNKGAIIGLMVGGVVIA
Protocol: as §1

[3] = molecular target: human tau-441 recombinant aggregate (fibrils) (Homo sapiens, UniProt P10636); experiment: Saturation and competition binding assay on tau aggregates (fibrils)
human tau-441 recombinant aggregate (fibrils), sequence (P10636 1-441 isoform P10636-8): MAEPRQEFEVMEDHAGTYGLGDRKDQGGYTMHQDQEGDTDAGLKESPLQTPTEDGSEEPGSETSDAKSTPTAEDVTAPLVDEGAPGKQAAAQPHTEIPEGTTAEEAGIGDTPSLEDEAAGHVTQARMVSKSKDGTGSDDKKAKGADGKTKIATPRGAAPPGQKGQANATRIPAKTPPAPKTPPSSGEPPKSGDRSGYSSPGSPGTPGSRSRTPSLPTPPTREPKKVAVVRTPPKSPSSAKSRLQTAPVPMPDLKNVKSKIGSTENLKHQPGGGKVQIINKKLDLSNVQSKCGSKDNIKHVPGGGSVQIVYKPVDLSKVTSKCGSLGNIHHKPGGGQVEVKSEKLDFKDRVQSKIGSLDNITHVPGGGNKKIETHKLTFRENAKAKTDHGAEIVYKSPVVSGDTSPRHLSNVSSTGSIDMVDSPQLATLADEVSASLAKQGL
Protocol: as §1

log P (octanol/PBS) = format: physicochemical; settings: Table 2
Description: Lipophilicity of CNS tracers plays an important role on blood brain barrier (BBB) and neuronal cells uptake. Therefore a library of ^18F-bithiazoles with high binding affinity towards Aβ1-40, Aβ1-42 τ, α-Syn were synthesized and log P (octanol/PBS) of these compounds measured (Table 2). The log P values were between 1.1-3.2.

[4] = molecular target: T1, Aβ1-40, Aβ1-42, τ, α-Syn aggregates; experiment: In vitro selectivity / binding profile across aggregates (potential use: targeting of); settings: span over all aggregate types, summary of Table 1; read-out: in vitro affinity (Ki) to β-amyloids, NFT τ and synuclein aggregates
T1 construct: other: span over all aggregate types, text summar
Protocol: as §1

Aβ and NFT = experiment: Ex vivo validation on APP/PS1-tau triple transgenic mouse brain, cross-validated with thioflavin S and AT8; format: in vivo
β-amyloids = experiment: In vitro staining of APP/PS1 tg mouse brain; format: binding; settings: 24 month old, 1% solution of compound
[5] = Table 1, read-out: Affinity Ki, T
[6] = Table 3, read-out: Affinity Ki, τ

- Potential Use: Targeting of ([1]; Table 1): α-syn aggregates low binding site
- Ki ([2]; Table 1): 371 nM
- inhibition at 0.1 µM (Aβ1-40; Table 1): 22 ± 1%
- inhibition at 0.1 µM (Aβ1-42; Table 1): 30 ± 1%
- Ki [3, 5]: > 1000 nM
Structure (SMILES): CCOc1ccc(-c2csc(-c3nc(-c4ccc(OC)cc4)cs3)n2)cc1 [Compound 6]

- Potential Use: Targeting of (in vitro selectivity) [1]: PAN
- logP (log P (octanol/PBS)): 1.9
Structure (SMILES): Oc1cc(-c2csc(-c3nc(-c4ccc5c(c4)OCO5)cs3)n2)ccc1OCCOCCF [Compound 9]

- Potential Use: Targeting of (in vitro selectivity) [1]: α-syn
- logP (log P (octanol/PBS)): 2.6
Structure (SMILES): FCOc1ccc(-c2csc(-c3nc(-c4ccc5c(c4)OCO5)cs3)n2)cc1 [Compound 15]

- Potential Use: Targeting of (in vitro selectivity) [1]: The low binding site of Aβ
- logP (log P (octanol/PBS)): 1.8
Structure (SMILES): Oc1ccc(-c2csc(-c3nc(-c4ccc(OCCOCCOCCF)cc4)cs3)n2)cc1 [Compound 17]

- Potential Use: Targeting of (in vitro selectivity) [1]: Aβ
- Potential Use: Targeting of ([1]; Table 3): Aβ
- logP (log P (octanol/PBS)): 1.9
- Ki ([2]; Table 3): > 1000 nM
- inhibition at 0.1 µM (Aβ1-40; Table 3): 90%
- Ki (Aβ1-40; Table 3): 5 nM
- inhibition at 0.1 µM (Aβ1-42; Table 3): 89 ± 1%
- Ki (Aβ1-42; Table 3): 6 nM
- Ki [3, 6]: > 1000 nM
Structure (SMILES): CN(C)c1ccc(-c2csc(-c3nc(-c4ccc(O)nc4)cs3)n2)cc1 [Compound 20]

- Potential Use: Targeting of (in vitro selectivity) [1]: Aβ
- logP (log P (octanol/PBS)): 3.2
Structure (SMILES): CN(C)c1ccc(-c2csc(-c3nc(-c4ccc(OCF)cc4)cs3)n2)cc1 [Compound 7]

- Potential Use: Targeting of (in vitro selectivity) [1]: Aβ
- Potential Use: Targeting of ([1]; Table 3): Aβ
- logP (log P (octanol/PBS)): 2.1
- Ki ([2]; Table 3): > 1000 nM
- inhibition at 0.1 µM (Aβ1-40; Table 3): 89 ± 2%
- Ki (Aβ1-40; Table 3): 6 nM
- inhibition at 0.1 µM (Aβ1-42; Table 3): 88 ± 1%
- Ki (Aβ1-42; Table 3): 6 nM
- Ki [3, 6]: > 1000 nM
Structure (SMILES): CN(C)c1ccc(-c2csc(-c3nc(-c4ccc(F)nc4)cs3)n2)cc1 [Compound 21]

- Ki ([2]; Table 1): 3 nM
- inhibition at 0.1 µM (Aβ1-40; Table 1): 22 ± 1%
- inhibition at 0.1 µM (Aβ1-42; Table 1): 45 ± 2%
- Ki (Aβ1-42; Table 1): 382 nM
- Ki [3, 5]: > 1000 nM
Structure (SMILES): COc1ccc(-c2csc(-c3nc(-c4ccc5c(c4)OCO5)cs3)n2)cc1F [Compound 3]

- Potential Use: Targeting of (in vitro selectivity) [1]: The low binding site of Aβ
- logP (log P (octanol/PBS)): 1.9
Structure (SMILES): Oc1ccc(-c2csc(-c3nc(-c4ccc(OCCOCCF)cc4)cs3)n2)cc1 [Compound 14]

- Potential Use: Targeting of (in vitro selectivity) [1]: Aβ
- logP (log P (octanol/PBS)): 2
Structure (SMILES): Nc1ccc(-c2csc(-c3nc(-c4ccc(NCCOCCOCCF)cc4)cs3)n2)cc1 [Compound 12]

- Potential Use: Targeting of (in vitro selectivity) [1]: Aβ
- logP (log P (octanol/PBS)): 2.6
Structure (SMILES): CN(C)c1ccc(-c2csc(-c3nc(-c4ccc(OCCOCCF)cc4)cs3)n2)cc1 [Compound 13]

- Potential Use: Targeting of (in vitro selectivity) [1]: PAN
- logP (log P (octanol/PBS)): 2.1
Structure (SMILES): Oc1cc(-c2csc(-c3nc(-c4ccc5c(c4)OCO5)cs3)n2)ccc1OCCF [Compound 8]

- Potential Use: Targeting of (in vitro selectivity) [1]: α-syn
- logP (log P (octanol/PBS)): 2.5
Structure (SMILES): FCCOCCOc1ccc(-c2csc(-c3nc(-c4ccc5c(c4)OCO5)cs3)n2)cc1 [Compound 11]

- Potential Use: Targeting of (in vitro selectivity) [1]: PAN
- Potential Use: Targeting of ([1]; Table 3): PAN
- logP (log P (octanol/PBS)): 2.9
- Ki ([2]; Table 3): 7 nM
- inhibition at 0.1 µM (Aβ1-40; Table 3): 87 ± 2%
- Ki (Aβ1-40; Table 3): 9 nM
- inhibition at 0.1 µM (Aβ1-42; Table 3): 86 ± 1%
- Ki (Aβ1-42; Table 3): 10 nM
- Ki [3, 6]: 10 nM
Structure (SMILES): COc1sc(-c2csc(-c3nc(-c4ccc5c(c4)OCO5)cs3)n2)cc1F [Compound 23]

- Potential Use: Targeting of (in vitro selectivity) [1]: α-syn
- logP (log P (octanol/PBS)): 3.2
- Ki ([2]; Table 3): 6 nM
- inhibition at 0.1 µM (Aβ1-40; Table 3): 20 ± 1%
- Ki (Aβ1-40; Table 3): > 500 nM
- inhibition at 0.1 µM (Aβ1-42; Table 3): 35 ± 2%
- Ki (Aβ1-42; Table 3): 492 nM
- Ki [3, 6]: > 1000 nM
Structure (SMILES): Fc1ccc(-c2cc(-c3csc(-c4nc(-c5ccc6c(c5)OCO6)cs4)n3)on2)cc1 [Compound 22]

- Ki [4]: 7 to 12 nM
- Potential Use: Targeting of ([1]; Table 1): Aβ, α-syn, τ- aggregates (PAN- ligand)
- Ki ([2]; Table 1): 9 nM
- inhibition at 0.1 µM (Aβ1-40; Table 1): 81 ± 2%
- Ki (Aβ1-40; Table 1): 10 nM
- inhibition at 0.1 µM (Aβ1-42; Table 1): 86 ± 1%
- Ki (Aβ1-42; Table 1): 7 nM
- Ki [3, 5]: 12 nM
Structure (SMILES): COc1ccc(-c2csc(-c3nc(-c4ccc5c(c4)OCO5)cs3)n2)cc1O [Compound 2]
- ex vivo brain staining, targets labelled (Aβ and NFT; APP/PS1-tau triple transgenic mouse, 24 month old, 45 min p.i., 0.6 mg in DMSO, cortical (FIG. 3) and hippocampus (FIG. 4) region): targets Aβ and NFT in the mouse model
- specificity of binding, ex vivo and in vitro validation (Aβ and NFT; APP/PS1 and APP/PS1-tau triple tg mouse model of AD brain): specific binding of compound 2 to Aβ and NFT
- in vitro staining of brain (β-amyloids): specific binding to β-amyloids; also recorded: targets Aβ in the mouse model

- Potential Use: Targeting of (in vitro selectivity) [1]: Aβ
- logP (log P (octanol/PBS)): 2.4
Structure (SMILES): CN(C)c1ccc(-c2csc(-c3nc(-c4ccc(NCCOCCOCCF)cc4)cs3)n2)cc1 [Compound 19]

- Potential Use: Targeting of (in vitro selectivity) [1]: α-syn
- logP (log P (octanol/PBS)): 2.6
Structure (SMILES): FCCOc1ccc(-c2csc(-c3nc(-c4ccc5c(c4)OCO5)cs3)n2)cc1 [Compound 10]

- Potential Use: Targeting of ([1]; Table 1): Aβ
- Ki ([2]; Table 1): > 1000 nM
- inhibition at 0.1 µM (Aβ1-40; Table 1): 94%
- Ki (Aβ1-40; Table 1): 4 nM
- inhibition at 0.1 µM (Aβ1-42; Table 1): 88 ± 1%
- Ki (Aβ1-42; Table 1): 6 nM
- Ki [3, 5]: > 1000 nM
Structure (SMILES): CN(C)c1ccc(-c2csc(-c3nc(-c4ccc(O)cc4)cs3)n2)cc1 [Compound 1]

- Potential Use: Targeting of (in vitro selectivity) [1]: PAN
- logP (log P (octanol/PBS)): 1.1
Structure (SMILES): Oc1ccc(-c2csc(-c3nc(-c4ccc(OCCOCCF)c(O)c4)cs3)n2)cc1O [Compound 16]

- Potential Use: Targeting of ([1]; Table 1): Aβ, α-syn aggregates low binding site
- Ki ([2]; Table 1): 328 nM
- inhibition at 0.1 µM (Aβ1-40; Table 1): 11%
- inhibition at 0.1 µM (Aβ1-42; Table 1): 45 ± 1%
- Ki (Aβ1-42; Table 1): 380 nM
- Ki [3, 5]: > 1000 nM
Structure (SMILES): CCCCOc1ccc(-c2csc(-c3nc(-c4ccc(OC)c(F)c4)cs3)n2)cc1 [Compound 5]

- Potential Use: Targeting of (in vitro selectivity) [1]: α-syn
- logP (log P (octanol/PBS)): 2.3
Structure (SMILES): FCCOCCOCCOc1ccc(-c2csc(-c3nc(-c4ccc5c(c4)OCO5)cs3)n2)cc1 [Compound 18]

- Ki ([2]; Table 1): 10 nM
- inhibition at 0.1 µM (Aβ1-40; Table 1): 11 ± 2%
- inhibition at 0.1 µM (Aβ1-42; Table 1): 45 ± 2%
- Ki (Aβ1-42; Table 1): 386 nM
- Ki [3, 5]: 558 nM
Structure (SMILES): CCOc1ccc(-c2csc(-c3nc(-c4ccc5c(c4)OCO5)cs3)n2)cc1 [Compound 4]
